Test results as given in patent US20070149435A1, “Cleansing composition including microencapsulated delivery vehicles” (Kimberly-Clark Worldwide, Inc., priority 2005, published 2007).
Read-outs that look alike come from different tables or passages of the source.

Key:
Staphylococcus aureus = assay: Biocidal efficacy of magnesium chloride in combination with PHMB, total plate count; type: cell-based; details: 15-minute contact time
Experimental: A 1.5-milliliter tube was prepared using magnesium chloride in water.
Two control samples were also prepared. One control sample was filled with 0.850 milliliters magnesium chloride. A second control sample was prepared by introducing 0.850 milliliters sterile water.
The tubes were then vortexed until an increase in temperature was observed.
0.05 milliliters of 1×10^7 CFU/milliliter culture of Staphylococcus aureus was added to each tube. After a 15-minute contact time, 0.1 milliliters of each tube was transferred into 0.9 milliliters letheen broth. To the broth, 10 milligrams/milliliter sodium thiosulfate was also added. The tubes were again vortexed. After vortexing, 0.1 milliliters of each tube was plated on Tryptic soy agar plates. The plates were inverted and incubated at 37° C. for 24 hours. An inoculum control plate was also plated to determine the concentration of the inoculum
After 24 hours, the plates were evaluated using a total plate count to determine the biocidal efficacy of each sample.

[1] = tested on: Methicillin-resistant Staphylococcus aureus; details: 0.005% PHMB, 10-minute contact time, 5% bovine serum albumin soil, n = 2
Experimental: This Example utilized 1.5-milliliter tubes containing a 1-milliliter blend of phosphate-buffered saline (pH 7.2) and 5% (w/v) bovine serum albumin soil. The tubes were placed in electric heat blocks set for 22° C., 30° C., 40° C. and 50° C., respectively. The tubes remained in the electric heat blocks for approximately 10 minutes.
After 10 minutes, 0.005% (by weight) active polyhexamehtylene biguanide (PHMB) (commercially available as Cosmocil® CQ from Arch Biocides, Inc., United Kingdom) was added to two tubes at each temperature level. Duplicate tubes without PHMB at each temperature were also made.
The tubes were then vortexed and Methicillin-resistant Staphylococcus aureus (approximately 1×10^5 colony forming units (CFU)) was then added to each tube. All of the tubes were then placed back into the heat blocks at their respective temperatures.
Following a 10-minute contact time, 0.1 milliliters of each sample was transferred to 0.9 milliliters letheen broth to neutralize the PHMB activity. The letheen samples were then plated in duplicate on Tryptic Soy agar plates using a WASP2 spiral plater (commercially available from Don Whitley Scientific, Ltd., Yorkshire, United Kingdom). The plates were inverted and incubated at 37±2° C. for 48 hours.
After 48 hours, the plates were evaluated using a total plate count to determine the biocidal efficacy of each sample.

[Cl-].[Cl-].[Mg+2] [Magnesium Chloride, magnesium chloride]
LOG10 recovered (Staphylococcus aureus; PHMB 0%, magnesium chloride 50%): 1.9

polyhexamethylene biguanide [PHMB]
LOG10 recovered (Staphylococcus aureus; PHMB 0.00025%, magnesium chloride 0%): 4.8 | Total CFU Recovered MRSA ([1]; 22° C.): 3.5 | Total CFU Recovered MRSA ([1]; 30° C.): 2.9 | Total CFU Recovered MRSA ([1]; 40° C.): 2.1 | Total CFU Recovered MRSA ([1]; 50° C.): <2
